In patent publication US20240327320A1, “NOVEL ROUTES OF CHEMICAL SYNTHESIS OF 20S(OH)D3, 20S,25(OH)2D3, 20S,23S(OH)2D3, AND 20S,23R(OH)2D3 AND THEIR MODIFICATION OF THE IMMUNE ACTIVITY OF PBMCS” (United State Government as represen ted by the Department …, priority 2023, published 2024):

Assays:
[1] = system: Human epidermal (HaCaT) keratinocytes; assay: Proliferation, MTS assay, keratinocytes; type: cell-based; conditions: 24 h or 48 h, 0.1-100 nM, FIG. 6
Protocol: (§1) Human dermal fibroblasts isolated from the skin of black neonates (HDFn) and human epidermal (HaCaT) keratinocytes cultured as described previously (Slominski A, et. al., (2013) The Journal of Clinical Endocrinology and Metabolism 98(2) E298-303; Slominski A T, et. al., (2011) Am J Physiol Cell Physiol 300(3) C526-41) were used for the experiments. Briefly, HDFn were plated onto 96-well plates at a confluence of about 70% in their seventh passage. Both HDFn and HaCaT keratinocytes were treated with 20S(OH)D3, 20S,25(OH)2D3, 20S,23S(OH)2D3, 20S,23R(OH)2D3 or 1α,25(OH)2D3 (Sigma-Aldrich, St. Louis, MO, USA) dissolved in ethanol and diluted in DMEM containing charcoal-treated serum, as previously described (Janjetovic Z, et. al., (2021) Endocrinology 162(1); Chaiprasongsuk A, et. al., (2020) Free Radic Biol Med 155 87-98; Slominski A T, et. al., (2011) Am J Physiol Cell Physiol 300(3) (2011) C526-41). The vehicle control comprised 0.1% ethanol. Proliferation was estimated using MTS (Promega, Madison, WI) assay. The number of viable cells was measured in 6 replicates.
(§2) Referring to FIG. 6A-D, inhibition of cell proliferation by 20S(OH)D3, 20S,25(OH)2D3, 20S,23S(OH)2D3 and 20S,23R(OH)2D3 in comparison to 1α,25(OH)2D3 is represented. […] Data are means±SD (n=6) and were analyzed using Student's t-test with p<0.05 (*), p<0.01 (**) or p<0.001 (***).

[2] = system: Human dermal fibroblasts (HDFn); assay: Proliferation, MTS assay, fibroblasts; type: cell-based; conditions: 24 h or 48 h, 0.1-100 nM, FIG. 6
Protocol: as §1, §2

[3] = literature, at the same doses; cited from earlier work
[4] = molecular target: T1, LXRβ (Homo sapiens, UniProt P55055); assay: LanthaScreen TR-FRET LXRβ coactivator assay; type: biochemical; conditions: TR-FRET ratio 520/495 nm, FIG. 8E-F
T1 construct: purchased Thermo Fisger Scientific, Inc
T1 sequence (P55055 222-460 limits assumed): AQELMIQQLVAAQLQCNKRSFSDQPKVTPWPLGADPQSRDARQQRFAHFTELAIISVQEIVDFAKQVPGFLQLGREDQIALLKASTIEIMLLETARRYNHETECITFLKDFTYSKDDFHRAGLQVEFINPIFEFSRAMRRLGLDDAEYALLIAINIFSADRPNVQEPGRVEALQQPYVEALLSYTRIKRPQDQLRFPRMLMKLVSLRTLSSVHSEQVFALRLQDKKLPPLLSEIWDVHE
Protocol: The bindings were performed using the LanthaScreen TR-FRET LXRa/0 Coactivator kit (Thermo Fisger Scientific, Inc., Waltham, MA) as described previously (Slominski A T, et. al., (2021) Sci Rep 11(1) 8002). Briefly, TR-FRET ratios were calculated by dividing the emission at 520 nm by that at 495 nm using Synergy neo2 (BioTek, Winooski, VT).

[5] = molecular target: T2, Human AhR (Homo sapiens, UniProt P35869); assay: Human AhR Reporter Assay System (luciferase); type: cell-based; conditions: 23 h treatment
T2 construct: purchased Indigo Biosciences
T2 sequence (P35869 11-848): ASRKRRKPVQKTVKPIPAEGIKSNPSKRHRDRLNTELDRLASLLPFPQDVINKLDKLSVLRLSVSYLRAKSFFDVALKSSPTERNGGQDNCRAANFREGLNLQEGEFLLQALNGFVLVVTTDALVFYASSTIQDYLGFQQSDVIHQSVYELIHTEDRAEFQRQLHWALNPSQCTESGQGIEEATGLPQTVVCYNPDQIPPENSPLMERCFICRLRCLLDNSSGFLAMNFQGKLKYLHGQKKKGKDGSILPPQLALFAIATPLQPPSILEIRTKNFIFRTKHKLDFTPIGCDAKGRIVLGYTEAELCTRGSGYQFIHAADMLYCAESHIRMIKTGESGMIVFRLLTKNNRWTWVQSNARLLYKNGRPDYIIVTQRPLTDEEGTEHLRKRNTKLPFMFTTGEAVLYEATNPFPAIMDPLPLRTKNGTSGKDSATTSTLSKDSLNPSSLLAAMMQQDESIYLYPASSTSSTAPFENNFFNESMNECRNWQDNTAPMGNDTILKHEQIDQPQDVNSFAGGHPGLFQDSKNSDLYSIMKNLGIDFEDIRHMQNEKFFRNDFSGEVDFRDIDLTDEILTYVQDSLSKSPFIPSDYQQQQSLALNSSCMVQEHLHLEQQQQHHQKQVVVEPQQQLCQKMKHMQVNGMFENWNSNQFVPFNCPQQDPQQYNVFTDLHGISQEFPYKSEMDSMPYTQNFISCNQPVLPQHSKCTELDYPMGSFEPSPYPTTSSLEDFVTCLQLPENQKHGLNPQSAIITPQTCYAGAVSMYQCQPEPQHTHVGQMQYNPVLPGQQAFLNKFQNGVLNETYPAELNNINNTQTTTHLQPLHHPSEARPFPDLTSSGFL
Protocol: The binding of chemically synthesized secosteroids to AhR was tested using the Human AhR Reporter Assay System (Indigo Biosciences, State College, PA, USA) following the manufacturer's protocol and as detailed previously (Slominski A T, et. al., (2018) Int J Mol Sci 19(10)). Briefly, the cells including the luciferase reporter gene linked to an AhR-responsive promoter were treated with the compounds for 23 h and the luminescence signal was measured using Cytation 5 (Biotek, Winooski, VT, USA) after treatment with the detection substrate provided in the kit system.

SMILES | inhibition of keratinocyte proliferation [1] | inhibition of fibroblast proliferation [2] | calcemic activity / toxicity [3] | activity on LXRβ [4] | activity on AhR [5]
C=C1CC[C@H](O)C/C1=C/C=C1\CCC[C@@]2(C)[C@H]1CC[C@@H]2[C@@](C)(O)CCCC(C)C [20S(OH)D3, (20S)-20-Hydroxyvitamin D3] | inhibits fibroblast and keratinocyte proliferation | inhibits fibroblast and keratinocyte proliferation | non-calcemic | – | –
C=C1CC[C@H](O)C/C1=C/C=C1\CCC[C@@]2(C)[C@H]1CC[C@@H]2[C@@](C)(O)C[C@H](O)CC(C)C [20S,23R(OH)2D3, (20S,23R)-20,23-Dihydroxyvitamin D3] | – | – | – | less efficient in activation of LXRβ than 20S,23S(OH)2D3 | reverse agonist
C=C1CC[C@H](O)C/C1=C/C=C1\CCC[C@@]2(C)[C@H]1CC[C@@H]2[C@@](C)(O)C[C@@H](O)CC(C)C [20S,23S(OH)2D3, (20S,23S)-20,23-Dihydroxyvitamin D3] | – | – | non-calcemic | better affinity with LXRβ | agonistic activity
C=C1CC[C@H](O)C/C1=C/C=C1\CCC[C@@]2(C)[C@H]1CC[C@@H]2[C@@](C)(O)CCCC(C)(C)O [20S,25(OH)2D3, (20S)-20,25-Dihydroxyvitamin D3] | inhibits fibroblast and keratinocyte proliferation | inhibits fibroblast and keratinocyte proliferation | – | – | –
